Experimental findings from patent US20260048062A1, “FUSED AMINO PYRIMIDINE COMPOUNDS FOR TREATMENT OF PSYCHOSIS AND PSYCHOTIC DISORDERS” (Ovid Therapeutics Inc., priority 2024, published 2026) are described below.

Molecules are shown by their SMILES.

Experiment [1] deals with panel of 144 protein kinases. Briefly: SelectScreen panel of 144 protein kinases. The format is biochemical. The conditions noted are these: includes PKC isoforms, OSR1, SPAK (STK39), WNK. On the procedure: Aliquots of HEK-293 cells expressing KCC2 were exposed to 30 μM SSA, heated from 37-55° C. The remaining level of soluble native KCC2 at each temperature was measured by immunoblotting and normalized to the level seen at 37° C. which was given a value of 1. […] This panel included protein kinase C isoforms, OSR1, SPAK (STK39) and with-no-lysine kinases (WNK), all of which phosphorylate KCC2 on multiple residues to indirectly modify its activity (Kahle et al., 2013, supra; Smalley et al., 2020, supra).

Another experiment concerns the target T1, KCC2 (Homo sapiens, UniProt Q9H2X9).
T1 construct: expressed in transfected cells; host or cells: HEK-293 (ATCC CRL-1573), transient transfection
T1 sequence (Q9H2X9 1-1116 isoform Q9H2X9-2): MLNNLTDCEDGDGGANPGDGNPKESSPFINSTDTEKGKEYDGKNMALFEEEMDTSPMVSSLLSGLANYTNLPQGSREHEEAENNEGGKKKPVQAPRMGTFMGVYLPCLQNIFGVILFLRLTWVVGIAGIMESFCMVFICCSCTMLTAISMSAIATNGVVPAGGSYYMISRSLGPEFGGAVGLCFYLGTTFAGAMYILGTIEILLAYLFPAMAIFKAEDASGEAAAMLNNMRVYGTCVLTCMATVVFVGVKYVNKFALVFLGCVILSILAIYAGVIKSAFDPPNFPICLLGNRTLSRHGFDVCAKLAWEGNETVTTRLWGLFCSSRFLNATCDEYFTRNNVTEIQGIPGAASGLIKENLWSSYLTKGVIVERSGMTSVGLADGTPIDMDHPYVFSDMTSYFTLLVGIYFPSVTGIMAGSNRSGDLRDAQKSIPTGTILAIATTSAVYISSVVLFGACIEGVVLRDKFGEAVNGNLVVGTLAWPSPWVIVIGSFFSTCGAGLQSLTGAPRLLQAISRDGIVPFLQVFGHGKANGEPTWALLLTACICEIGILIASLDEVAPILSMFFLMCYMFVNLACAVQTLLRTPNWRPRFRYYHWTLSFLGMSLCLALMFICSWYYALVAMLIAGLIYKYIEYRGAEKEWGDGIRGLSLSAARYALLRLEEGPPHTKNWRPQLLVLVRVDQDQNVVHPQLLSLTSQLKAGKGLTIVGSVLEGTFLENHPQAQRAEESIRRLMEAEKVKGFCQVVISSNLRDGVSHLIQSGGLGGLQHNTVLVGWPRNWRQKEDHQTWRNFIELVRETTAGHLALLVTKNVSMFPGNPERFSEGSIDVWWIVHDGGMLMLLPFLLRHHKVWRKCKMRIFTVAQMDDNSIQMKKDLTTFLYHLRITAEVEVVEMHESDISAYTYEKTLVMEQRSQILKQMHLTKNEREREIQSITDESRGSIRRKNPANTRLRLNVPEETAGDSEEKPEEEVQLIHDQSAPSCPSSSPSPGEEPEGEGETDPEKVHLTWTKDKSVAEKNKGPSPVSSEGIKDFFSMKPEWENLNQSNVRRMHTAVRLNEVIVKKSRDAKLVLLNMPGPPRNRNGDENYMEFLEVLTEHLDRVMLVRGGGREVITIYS
Briefly: FLIPR Tl+ flux assay, HEK-293 cells expressing KCC2. Format: cell-based. The conditions noted are these: saturating concentration of 3 μM, 1% BCD vehicle. As to the method:
A multi-tiered high-throughput screening assay was used, leveraging a proprietary library of 1.3 million small molecule compounds from AstraZeneca (Cambridge, UK) to identify chemical entities capable of activating KCC2. A single point concentration of 30 μM was used to identify potassium flux using an established thallium (TI+) influx FLIPR assay as the primary read out in HEK-293 cells overexpressing KCC2 (Cardarelli et al., Nat. Med. 23, 1394-1396 (2017); Conway et al., J Biol Chem 292, 21253-21263 (2017); Lee et al., 2022, supra).
Cell Culture and biotinylation. […]
FLIPR TI Flux assay. HEK-293 cells were washed with HBSS, and then incubated with loading buffer containing TI sensitive fluorescent dye (https://www.moleculardevices.com), 20 μM bumetanide 20 μM ouabain and 2.5 mM probenecid for 1 h at room temperature (RT) under control conditions or with drugs in the dark using a FlexStation 3 microplate reader (Molecular Devices) and imaged […] for 30 min. Stimulus buffer was added containing 5 mM K^+/0.5 mM Tl^+ and cells were imaged every 1.5 over a 190 second time course The initial rate Tl^+ uptake (Relative Fluorescence Units (RFU) per second) was determined following addition of the stimulus buffer as outlined previously (Conway et al., 2017, supra) (Lee et al., 2022, supra). […]

Another experiment concerns acute brain slices. The experiment in a line: Late recurrent discharges in acute brain slices exposed to 0-Mg.
The subject of the next experiment is hippocampus. The experiment in a line: Neuronal cell death in the hippocampus, Compound A with diazepam. Format: in vivo. The conditions noted are these: mice, Compound A and diazepam vs diazepam alone.

As to `C[C@@H]1CN(c2nc3c(c(Nc4ccc(C5CCCCC5)cc4)n2)COC3)CCO1` [Compound A, (R)—N-(4-cyclohexylphenyl)-2-(2-methylmorpholino)-5,7-dihydrofuro[3,4-d]pyrimidin-4-amine], the “activity of a panel of 144 protein kinases” value in experiment [1] is on record as “did not modify the activity”. The “maximum potentiation of KCC2” value at KCC2 is listed as 90%. The “development of late recurrent discharges (LRDs)” value in the experiment with acute brain slices is reported as “reduced”. For the same compound, in the experiment with hippocampus, the “neuronal cell death in the hippocampus” value is on record as “significantly reduced”.
